SMILES strings stand for the structures.

In test [1] the target is T1, RIPK1 (Homo sapiens, UniProt Q13546).
T1 construct: endogenous in cells; host or cells: HT-29 (KCLB 30038)
T1 sequence (Q13546 1-671): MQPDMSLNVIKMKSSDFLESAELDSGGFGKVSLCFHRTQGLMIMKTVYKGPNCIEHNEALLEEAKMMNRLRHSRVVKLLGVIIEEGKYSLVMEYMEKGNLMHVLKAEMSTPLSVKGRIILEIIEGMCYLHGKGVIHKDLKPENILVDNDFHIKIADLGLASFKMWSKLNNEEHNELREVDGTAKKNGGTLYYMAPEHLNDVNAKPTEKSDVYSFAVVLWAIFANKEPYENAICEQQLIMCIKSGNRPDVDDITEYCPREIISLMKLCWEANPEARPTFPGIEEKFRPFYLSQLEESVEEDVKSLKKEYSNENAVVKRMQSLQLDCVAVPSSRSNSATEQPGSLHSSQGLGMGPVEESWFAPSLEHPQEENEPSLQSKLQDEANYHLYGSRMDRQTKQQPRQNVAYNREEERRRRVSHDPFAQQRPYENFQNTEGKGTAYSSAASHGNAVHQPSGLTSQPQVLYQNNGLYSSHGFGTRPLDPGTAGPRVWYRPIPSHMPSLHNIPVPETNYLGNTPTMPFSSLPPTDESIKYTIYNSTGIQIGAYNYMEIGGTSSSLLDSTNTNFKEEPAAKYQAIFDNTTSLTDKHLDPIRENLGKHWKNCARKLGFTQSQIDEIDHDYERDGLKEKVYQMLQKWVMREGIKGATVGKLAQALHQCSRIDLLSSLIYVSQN
Briefly: Cell-based necroptosis assay for RIPK1 activity (cell viability by CCK-8). To be noted: HT-29 cells; Z-VAD-FMK 20 μM, human TNFα 10 ng/ml, SM-164 100 nM; 24 h; read-out: Cell-base RIPK1 activity: Necroptosis. The method in brief:
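HT-29 cells pretreated 30 min with 20 μM Z-VAD-FMK, then necroptosis induced with human TNFα 10 ng/ml plus SM-164 100 nM alongside RIPK1 inhibitor (0.0001–10 uM) for 24 h. Viability read by CCK-8.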

Test [2] deals with T1, RIPK1. Briefly: Immunoblotting of TNFα induced phospho-RIPK1 (ser 166) levels. To be noted: HMC3 cells; Z-VAD-FMK, human TNFα 20 ng/ml, SM-164 100 nM; 7 h, serum free media; read-out: Cell-base RIPK1 activity: phspho-RIPK1 (Ser166). Format: cell-based. The method in brief:
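HMC3 human microglial cells were pretreated 30 min with Z-VAD-FMK […]. They were then given TNFα 20 ng/ml, SM-164 100 nM and inhibitor (0.1, 1, 10 nM) for 7 h in serum-free medium. BCA-normalised lysates were immunoblotted for phospho-RIPK1 Ser166.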
In general terms: Immunoblotting shows a protein as a band on a membrane.

Consider `CN1C(=O)[C@@H](NC(=O)n2cc(Cc3cccc(F)c3)cn2)COc2ccc(OCC(=O)N3CC(O)C3)cc21` [Example 50, (S)-4-(3-fluorobenzyl)-N-(7-(2-(3-hydroxyazetidin-1-yl)-2-oxoethoxy)-5-methyl-4-oxo-2,3,4,5-tetrahydrobenzo[b][1,4]oxazepin-3-yl)-1H-pyrazole-1-carboxamide], for which the IC50 in test [1] and in test [2] was below 10 nM in each case.

`CN1C(=O)[C@@H](NC(=O)n2cc(Cc3cccc(F)c3)cn2)COc2ccc(OCC(=O)NC3CC3)cc21` [Example 51, (S)—N-(7-(2-(cyclopropylamino)-2-oxoethoxy)-5-methyl-4-oxo-2,3,4,5-tetrahydrobenzo[b][1,4]oxazepin-3-yl)-4-(3-fluorobenzyl)-1H-pyrazole-1-carboxamide]: the IC50 in test [1] and in test [2] was below 10 nM in each case.

In the case of `CCN(CC(C)(C)O)C(=O)COc1ccc2c(c1)N(C)C(=O)[C@@H](NC(=O)n1cc(Cc3cccc(F)c3)cn1)CO2` [Example 53, (S)—N-(7-(2-(ethyl(2-hydroxy-2-methylpropyl)amino)-2-oxoethoxy)-5-methyl-4-oxo-2,3,4,5-tetrahydrobenzo[b][1,4]oxazepin-3-yl)-4-(3-fluorobenzyl)-1H-pyrazole-1-carboxamide], the IC50 in test [1] and in test [2] was below 10 nM in each case.

Consider `CN1C(=O)[C@@H](NC(=O)n2cc(Cc3cccc(F)c3)cn2)COc2ccc(OCC(=O)n3cc(O[Si](C)(C)C(C)(C)C)cn3)cc21` [Example 54, (S)—N-(7-(2-(4-((tert-butyldimethylsilyl)oxy)-1H-pyrazol-1-yl)-2-oxoethoxy)-5-methyl-4-oxo-2,3,4,5-tetrahydrobenzo[b][1,4]oxazepin-3-yl)-4-(3-fluorobenzyl)-1H-pyrazole-1-carboxamide], for which the IC50 in test [1] and in test [2] was 10 to 50 nM each time.

On to `CN1C(=O)[C@@H](NC(=O)n2cc(Cc3cccc(F)c3)cn2)COc2ccc(OCC3CCOCC3)cc21` [Example 55, (S)-4-(3-fluorobenzyl)-N-(5-methyl-4-oxo-7-((tetrahydro-2H-pyran-4-yl)methoxy)-2,3,4,5-tetrahydrobenzo[b][1,4]oxazepin-3-yl)-1H-pyrazole-1-carboxamide], for which the IC50 in test [1] and in test [2] was below 10 nM each time.

`CN1C(=O)[C@@H](NC(=O)n2cc(Cc3cccc(F)c3)cn2)COc2ccc(OCc3ccccc3)cc21` [Example 56, (S)—N-(7-(benzyloxy)-5-methyl-4-oxo-2,3,4,5-tetrahydrobenzo[b][1,4]oxazepin-3-yl)-4-(3-fluorobenzyl)-1H-pyrazole-1-carboxamide]: the IC50 in test [1] and in test [2] was below 10 nM in each case.

Take `CN1C(=O)[C@@H](NC(=O)n2cc(Cc3cccc(F)c3)cn2)COc2ccc(OCc3ccc(F)cc3)cc21` [Example 57, (S)-4-(3-fluorobenzyl)-N-(7-((4-fluorobenzyl)oxy)-5-methyl-4-oxo-2,3,4,5-tetrahydrobenzo[b][1,4]oxazepin-3-yl)-1H-pyrazole-1-carboxamide]: the IC50 in test [1] and in test [2] was below 10 nM throughout.

Consider `CN1C(=O)[C@@H](NC(=O)n2cc(Cc3cccc(F)c3)cn2)COc2ccc(OCc3ccc(F)cn3)cc21` [Example 58, (S)-4-(3-fluorobenzyl)-N-(7-((5-fluoropyridin-2-yl)methoxy)-5-methyl-4-oxo-2,3,4,5-tetrahydrobenzo[b][1,4]oxazepin-3-yl)-1H-pyrazole-1-carboxamide], for which the IC50 in test [1] and in test [2] was below 10 nM in each case.

Regarding `CN1C(=O)[C@@H](NC(=O)n2cc(Cc3cccc(F)c3)cn2)COc2ccc(OCc3ccc(F)nc3)cc21` [Example 59, (S)-4-(3-fluorobenzyl)-N-(7-((6-fluoropyridin-3-yl)methoxy)-5-methyl-4-oxo-2,3,4,5-tetrahydrobenzo[b][1,4]oxazepin-3-yl)-1H-pyrazole-1-carboxamide], the IC50 in test [1] and in test [2] was below 10 nM in each case.

Turning to `CN1C(=O)[C@@H](NC(=O)n2cc(Cc3cccc(F)c3)cn2)COc2ccc(OCc3ccnc(F)c3)cc21` [Example 60, (S)-4-(3-fluorobenzyl)-N-(7-((2-fluoropyridin-4-yl)methoxy)-5-methyl-4-oxo-2,3,4,5-tetrahydrobenzo[b][1,4]oxazepin-3-yl)-1H-pyrazole-1-carboxamide], the IC50 in test [1] and in test [2] was below 10 nM each time.

`COc1cc(COc2ccc3c(c2)N(C)C(=O)[C@@H](NC(=O)n2cc(Cc4cccc(F)c4)cn2)CO3)ccn1` [Example 61, (S)-4-(3-fluorobenzyl)-N-(7-((2-methoxypyridin-4-yl)methoxy)-5-methyl-4-oxo-2,3,4,5-tetrahydrobenzo[b][1,4]oxazepin-3-yl)-1H-pyrazole-1-carboxamide]: the IC50 in test [1] and in test [2] was below 10 nM in each case.

On to `CN1C(=O)[C@@H](NC(=O)n2cc(Cc3cccc(F)c3)cn2)COc2ccc(OCc3cnc(Cl)nc3)cc21` [Example 62, (S)—N-(7-((2-chloropyrimidin-5-yl)methoxy)-5-methyl-4-oxo-2,3,4,5-tetrahydrobenzo[b][1,4]oxazepin-3-yl)-4-(3-fluorobenzyl)-1H-pyrazole-1-carboxamide], for which the IC50 in test [1] and in test [2] was below 10 nM throughout.

In the case of `CN1C(=O)[C@@H](NC(=O)n2cc(Cc3cccc(F)c3)cn2)COc2ccc(OCc3nccn3C)cc21` [Example 63, (S)-4-(3-fluorobenzyl)-N-(5-methyl-7-((1-methyl-1H-imidazol-2-yl)methoxy)-4-oxo-2,3,4,5-tetrahydrobenzo[b][1,4]oxazepin-3-yl)-1H-pyrazole-1-carboxamide], the IC50 in test [1] and in test [2] was below 10 nM throughout.

For `Cc1nnc(COc2ccc3c(c2)N(C)C(=O)[C@@H](NC(=O)n2cc(Cc4cccc(F)c4)cn2)CO3)o1` [Example 64, (S)-4-(3-fluorobenzyl)-N-(5-methyl-7-((5-methyl-1,3,4-oxadiazol-2-yl)methoxy)-4-oxo-2,3,4,5-tetrahydrobenzo[b][1,4]oxazepin-3-yl)-1H-pyrazole-1-carboxamide], the IC50 in test [1] and in test [2] was 10 to 50 nM in each case.

Consider `COC(=O)c1csc(COc2ccc3c(c2)N(C)C(=O)[C@@H](NC(=O)n2cc(Cc4cccc(F)c4)cn2)CO3)n1` [Example 65, Methyl (S)-2-(((3-(4-(3-fluorobenzyl)-1H-pyrazole-1-carboxamido)-5-methyl-4-oxo-2,3,4,5-tetrahydrobenzo[b][1,4]oxazepin-7-yl)oxy)methyl)thiazole-4-carboxylate], for which the IC50 in test [1] and in test [2] was below 10 nM in each case.

`CN1C(=O)[C@@H](NC(=O)n2cc(Cc3cccc(F)c3)cn2)COc2ccc(OCc3nc(C(C)(C)O)cs3)cc21` [Example 66, (S)-4-(3-fluorobenzyl)-N-(7-((4-(2-hydroxypropan-2-yl)thiazol-2-yl)methoxy)-5-methyl-4-oxo-2,3,4,5-tetrahydrobenzo[b][1,4]oxazepin-3-yl)-1H-pyrazole-1-carboxamide]: the IC50 in test [1] and in test [2] was below 10 nM in each case.

For the compound `Cc1noc(C)c1COc1ccc2c(c1)N(C)C(=O)[C@@H](NC(=O)n1cc(Cc3cccc(F)c3)cn1)CO2` [Example 67, (S)—N-(7-((3,5-dimethylisoxazol-4-yl)methoxy)-5-methyl-4-oxo-2,3,4,5-tetrahydrobenzo[b][1,4]oxazepin-3-yl)-4-(3-fluorobenzyl)-1H-pyrazole-1-carboxamide], the IC50 in test [1] and in test [2] was below 10 nM throughout.

`CN1C(=O)[C@@H](NC(=O)n2cc(Cc3cccc(F)c3)cn2)COc2ccc(OCc3cn(CC(C)(C)O)nn3)cc21` [Example 68, (S)-4-(3-fluorobenzyl)-N-(7-((1-(2-hydroxy-2-methylpropyl)-1H-1,2,3-triazol-4-yl)methoxy)-5-methyl-4-oxo-2,3,4,5-tetrahydrobenzo[b][1,4]oxazepin-3-yl)-1H-pyrazole-1-carboxamide]: the IC50 in test [1] and in test [2] was below 10 nM each time.

Consider `CN1C(=O)[C@@H](NC(=O)n2cc(Cc3cccc(F)c3)cn2)COc2ccc(OCC(O)c3ccccn3)cc21` (stereo partly drawn) [Example 69, 4-(3-fluorobenzyl)-N-((3S)-7-(2-hydroxy-2-(pyridin-2-yl)ethoxy)-5-methyl-4-oxo-2,3,4,5-tetrahydrobenzo[b][1,4]oxazepin-3-yl)-1H-pyrazole-1-carboxamide], for which the IC50 in test [1] and in test [2] was below 10 nM in each case.

The values are drawn from patent US20240083892A1 (BISICHEM CO., LTD., priority 2021, published 2024).
